Experimental data from ChEMBL document CHEMBL6177939, “The role of silicon in drug discovery: a review” (RSC Med Chem, 2024).
Values after ≈ are worked out from the molar mass of the structure shown.

Legend:
[1] = tested on: Mycobacterium tuberculosis; test: Antimycobacterial activity against Mycobacterium tuberculosis H37Rv assessed as inhibition of bacterial growth incubated for 24 hrs by alamar blue assay; format: functional
Staphylococcus aureus [2] = test: Antibacterial activity against Staphylococcus aureus; format: functional
Pseudomonas aeruginosa [3] = test: Antibacterial activity against Pseudomonas aeruginosa; format: functional
Escherichia coli [4] = test: Antibacterial activity against Escherichia coli; format: functional
Aedes aegypti = test: […] activity against Aedes aegypti assessed as protection time at 0.5 microg/cm; format: functional
Pseudomonas aeruginosa [5] = test: Antibacterial activity against Pseudomonas aeruginosa ATCC 27853 assessed as reduction in bacterial growth incubated for 24 hrs by CLSI micro-dilution method; format: functional
MCF7 = test: Cytotoxicity against human MCF7 cells assessed as reduction in cell viability by XTT assay; format: functional, cell-based
HepG2 [6] = test: Cytotoxicity against human HepG2 cells assessed as reduction in cell viability by XTT assay; format: functional, cell-based
Penicillium chrysogenum = test: Antifungal activity against Penicillium chrysogenum ATCC 11709 assessed as reduction in fungal growth incubated for 24 hrs by CLSI micro-dilution method; format: functional
Aspergillus niger = test: Antifungal activity against Aspergillus niger ATCC 16888 assessed as reduction in fungal growth incubated for 24 hrs by broth micro-dilution method; format: functional
Fusarium solani = test: Antifungal activity against Fusarium solani ATCC 20327 assessed as reduction in fungal growth incubated for 24 hrs by CLSI micro-dilution method; format: functional
Bacillus sp. = test: Antibacterial activity against Bacillus sp. ATCC 19986 assessed as reduction in bacterial growth incubated for 24 hrs by CLSI micro-dilution method; format: functional; settings: Bacillus sp. (in: firmicutes)
Acinetobacter baumannii = test: Antibacterial activity against Acinetobacter baumannii ATCC 19606 assessed as reduction in cell growth incubated for 18 hrs by two-fold serial dilution method; format: functional
Pseudomonas aeruginosa [7] = test: Antibacterial activity against Pseudomonas aeruginosa ATCC 27853 assessed as reduction in cell growth incubated for 18 hrs by two-fold serial dilution method; format: functional
Staphylococcus aureus [8] = test: Antibacterial activity against Staphylococcus aureus ATCC 25923 assessed as reduction in cell growth incubated for 18 hrs by two-fold serial dilution method; format: functional
Escherichia coli [9] = test: Antibacterial activity against Escherichia coli ATCC 25922 assessed as reduction in cell growth incubated for 18 hrs by two-fold serial dilution method; format: functional
BJAB = test: Cytotoxicity against human BJAB cells assessed as lethal dose measured after 48 hrs; format: functional; settings: read-out: LD50 (the source's name)
Acetylcholinesterase = Acetylcholinesterase (Homo sapiens, UniProt P22303); test: Inhibition of AChE (unknown origin) using acetylthiocholine iodide as substrate by Ellman's method
NIH3T3 = test: Cytotoxicity against mouse NIH3T3 cells assessed as reduction in cell growth by measuring lethal concentration for 72 hrs by MTT assay; format: toxicity, cell-based; settings: nih3t3, 72 h
MG-22A = test: Cytotoxicity against mouse MG-22A cells assessed as reduction in cell growth by measuring lethal concentration for 72 hrs by MTT assay; format: functional
HT-1080 = test: Cytotoxicity against human HT-1080 cells assessed as reduction in cell growth by measuring lethal concentration for 72 hrs by MTT assay; format: functional
Entamoeba histolytica = test: Antiparasitic activity against Entamoeba histolytica HM-1:IMSS assessed as reduction in parasite growth incubated for 48 hrs by MTT assay; format: functional, organism-based
Giardia intestinalis = test: Antiparasitic activity against Giardia intestinalis Portland 1 assessed as reduction in parasite growth incubated for 48 hrs by MTT assay; format: functional, organism-based; settings: Giardia duodenalis, Portland 1, 48 h
[10] = Acute toxicity in po dosed mouse assessed as lethal dose; format: organism-based; settings: in vivo
Mythimna separata = test: Toxicity in Mythimna separata assessed as lethal dose; format: organism-based
HepG2 [11] = test: Antiproliferative activity against human HepG2 cells; format: functional, cell-based
[12] = biological target: Angiotensin-converting enzyme (Homo sapiens, UniProt P12821); test: Inhibition of ACE (unknown origin) using N-[3-(2-furyl)-acryloyl]- L -phenylalanylglycylglycin as substrate incubated for 5 mins
MDA-MB-435 = test: Cytotoxicity against human MDA-MB-435 cells assessed as reduction in cell viability incubated for 48 hrs by SRB assay; format: functional, cell-based; settings: MDA-MB-435, 48 h
P388 = test: Antiproliferative activity against mouse P388 cells; format: functional, cell-based

Sequence of Acetylcholinesterase (P22303 whole entry): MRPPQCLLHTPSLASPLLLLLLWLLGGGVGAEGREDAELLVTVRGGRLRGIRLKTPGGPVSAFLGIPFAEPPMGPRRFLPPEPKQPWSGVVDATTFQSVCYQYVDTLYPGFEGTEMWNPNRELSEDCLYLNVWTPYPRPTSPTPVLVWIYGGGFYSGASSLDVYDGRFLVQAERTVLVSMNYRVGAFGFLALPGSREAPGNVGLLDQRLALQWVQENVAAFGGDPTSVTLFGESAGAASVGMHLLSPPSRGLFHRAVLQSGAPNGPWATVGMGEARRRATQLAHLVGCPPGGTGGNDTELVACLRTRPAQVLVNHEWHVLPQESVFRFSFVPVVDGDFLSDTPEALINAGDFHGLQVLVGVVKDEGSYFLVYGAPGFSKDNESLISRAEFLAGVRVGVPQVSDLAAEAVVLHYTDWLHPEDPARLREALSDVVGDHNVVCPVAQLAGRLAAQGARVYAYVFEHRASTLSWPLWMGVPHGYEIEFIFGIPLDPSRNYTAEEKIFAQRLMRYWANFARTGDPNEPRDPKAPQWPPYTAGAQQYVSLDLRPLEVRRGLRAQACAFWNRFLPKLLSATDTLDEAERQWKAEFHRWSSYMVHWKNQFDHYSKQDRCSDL
Sequence of Angiotensin-converting enzyme (P12821 whole entry): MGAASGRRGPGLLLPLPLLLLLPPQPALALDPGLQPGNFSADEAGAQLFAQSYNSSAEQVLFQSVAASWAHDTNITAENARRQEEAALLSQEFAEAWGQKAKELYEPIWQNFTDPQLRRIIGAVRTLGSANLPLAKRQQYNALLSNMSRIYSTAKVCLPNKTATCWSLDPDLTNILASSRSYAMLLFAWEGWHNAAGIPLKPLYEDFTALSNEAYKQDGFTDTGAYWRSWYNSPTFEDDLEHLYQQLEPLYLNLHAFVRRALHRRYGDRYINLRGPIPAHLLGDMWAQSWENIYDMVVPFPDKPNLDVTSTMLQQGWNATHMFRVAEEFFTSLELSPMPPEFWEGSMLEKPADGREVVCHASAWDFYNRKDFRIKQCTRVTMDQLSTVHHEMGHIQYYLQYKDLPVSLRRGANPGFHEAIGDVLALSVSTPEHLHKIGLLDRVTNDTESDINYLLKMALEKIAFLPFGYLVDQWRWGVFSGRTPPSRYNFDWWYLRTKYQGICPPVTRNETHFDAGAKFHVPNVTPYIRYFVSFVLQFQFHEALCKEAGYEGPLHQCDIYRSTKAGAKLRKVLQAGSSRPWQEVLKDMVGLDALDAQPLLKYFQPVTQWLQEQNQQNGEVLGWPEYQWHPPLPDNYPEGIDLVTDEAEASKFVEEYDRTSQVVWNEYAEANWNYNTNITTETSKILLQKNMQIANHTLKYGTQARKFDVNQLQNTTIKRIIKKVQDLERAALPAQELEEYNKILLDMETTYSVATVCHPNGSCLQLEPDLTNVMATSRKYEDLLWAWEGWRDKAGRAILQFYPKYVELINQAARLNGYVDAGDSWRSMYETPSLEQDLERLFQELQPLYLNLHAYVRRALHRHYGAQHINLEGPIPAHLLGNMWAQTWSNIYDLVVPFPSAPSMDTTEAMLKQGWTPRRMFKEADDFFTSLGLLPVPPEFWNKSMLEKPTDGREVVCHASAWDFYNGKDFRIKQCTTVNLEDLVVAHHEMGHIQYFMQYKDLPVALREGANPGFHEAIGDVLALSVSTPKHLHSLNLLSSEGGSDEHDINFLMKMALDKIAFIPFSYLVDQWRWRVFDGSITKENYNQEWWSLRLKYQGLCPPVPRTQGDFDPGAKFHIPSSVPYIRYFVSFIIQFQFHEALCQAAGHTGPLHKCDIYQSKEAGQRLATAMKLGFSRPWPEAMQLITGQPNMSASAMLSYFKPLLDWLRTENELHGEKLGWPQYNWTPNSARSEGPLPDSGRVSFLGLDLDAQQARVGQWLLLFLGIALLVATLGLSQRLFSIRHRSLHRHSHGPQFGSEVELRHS

In the case of Cc1c(CN2CCN(C)CC2)cc(-c2ccc(Cl)cc2)n1-c1ccc(Cl)cc1, the MIC [1] is reported as 1.7 µM.

With C[Si]1(C)CCN(C(=O)/C=C/C=C/c2ccc3c(c2)OCO3)CC1 the MIC [1] was 50 µg/mL.

For COc1cc(/C=N/CCC[Si](OC)(OC)OC)ccc1OCc1cn(CCOc2ccccc2[N+](=O)[O-])nn1, the MIC (Staphylococcus aureus [2]) was 1.87 µg/mL (≈ 3.34 µM), the MIC (Pseudomonas aeruginosa [3]) was 15 µg/mL (≈ 26.8 µM) and the MIC (Escherichia coli [4]) was 15 µg/mL (≈ 26.8 µM).

C[Si]1(C)CCN(C(=O)/C=C/c2ccc3c(c2)OCO3)CC1 gave an MIC [1] of 50 µg/mL.

Molecule C[Si]1(C)CCN(C(=O)C2=CCCCC2)CC1 has a Time (Aedes aegypti) of 756 min.

In the case of NCCC[Si-]123OCC[N+]1(CCO2)CCO3 (configuration not stated), the MIC (Pseudomonas aeruginosa [5]) is reported as 1.2 µg/mL (≈ 5.16 µM), the IC50 (MCF7) is reported as 65 µg/mL (≈ 280 µM) and the IC50 (HepG2 [6]) is reported as 150 µg/mL (≈ 646 µM). For the same molecule, the MIC (Penicillium chrysogenum) was 1.2 µg/mL (≈ 5.16 µM), the MIC (Aspergillus niger) was 1.2 µg/mL (≈ 5.16 µM) and the MIC (Fusarium solani) was 1.2 µg/mL (≈ 5.16 µM). It also gave an MIC (Bacillus sp.) of 1.2 µg/mL (≈ 5.16 µM).

With O=C1c2ccccc2C(=O)N1CCC[Si-]123OCC[N+]1(CCO2)CCO3 (configuration not stated) the MIC (Acinetobacter baumannii) was 0.2 µg/mL (≈ 0.552 µM), the MIC (Pseudomonas aeruginosa [7]) was 0.2 µg/mL (≈ 0.552 µM) and the MIC (Staphylococcus aureus [8]) was 0.2 µg/mL (≈ 0.552 µM). For the same molecule, the MIC (Escherichia coli [9]) was 0.2 µg/mL (≈ 0.552 µM).

For CC(C)C(C)(C)[Si](C)(C)OC[C@H]1C[C@@H](n2cc(Br)c(=O)[nH]c2=O)C=C1CO, the CC50 (BJAB) was 9000 nM.

C[Si]1(Cl)C=CC(=O)C1=P(c1ccccc1)(c1ccccc1)c1ccccc1 (configuration not stated) showed an IC50 (Acetylcholinesterase) of 113 nM.

Work on CCCCCCCCCOCCc1sc[n+](CCC[Si](C)(C)C)c1C.[I-] yielded an LC50 (NIH3T3) of 0.1 µg/mL, an LC50 (MG-22A) of 0.1 µg/mL and an LC50 (HT-1080) of 0.1 µg/mL.

Work on CCN(CC)c1ccc(/C=N/CCC[Si](OC)(OC)OC)c(OCc2cn(CCOc3ccccc3[N+](=O)[O-])nn2)c1 yielded an MIC (Staphylococcus aureus [2]) of 0.195 µg/mL (≈ 0.325 µM), an MIC (Pseudomonas aeruginosa [3]) of 6.3 µg/mL (≈ 10.5 µM) and an MIC (Escherichia coli [4]) of 6.3 µg/mL (≈ 10.5 µM).

Work on CC1C[N+]23CC(C)O[Si-]2(CCCNCC/N=C/c2ccc4ccc5cccc6ccc2c4c56)(O1)OC(C)C3 (configuration not stated) yielded an IC50 (Entamoeba histolytica) of 1140 nM and an IC50 (Giardia intestinalis) of 44600 nM.

With CC1(C)CCN(C(=O)C2=CCCCC2)CC1 the Time (Aedes aegypti) was 520 min.

Molecule C[Si]1(Cl)C=C/C(=N\c2ccccc2)C1=P(c1ccccc1)(c1ccccc1)c1ccccc1 (configuration not stated) has an IC50 (Acetylcholinesterase) of 113 nM.

In the case of CC(C)(C)[Si](C)(C)OC[C@H]1C[C@@H](n2cc(Br)c(=O)[nH]c2=O)C=C1CO, the CC50 (BJAB) is reported as 46000 nM.

For CC1C[N+]23CC(C)O[Si-]2(CCCN2C(=O)c4ccccc4C2=O)(O1)OC(C)C3 (configuration not stated), the MIC (Acinetobacter baumannii) was 0.2 µg/mL (≈ 0.494 µM), the MIC (Pseudomonas aeruginosa [7]) was 0.2 µg/mL (≈ 0.494 µM) and the MIC (Staphylococcus aureus [8]) was 0.2 µg/mL (≈ 0.494 µM). The MIC (Escherichia coli [9]) was 0.2 µg/mL (≈ 0.494 µM).

With Nc1ccc(O)c(/C=N/CCC[Si-]234OCC[N+]2(CCO3)CCO4)c1 (configuration not stated) the MIC (Pseudomonas aeruginosa [5]) was 1.2 µg/mL (≈ 3.41 µM), the IC50 (MCF7) was 65 µg/mL (≈ 185 µM) and the IC50 (HepG2 [6]) was 150 µg/mL (≈ 427 µM). It also gave an MIC (Penicillium chrysogenum) of 1.2 µg/mL (≈ 3.41 µM), an MIC (Aspergillus niger) of 1.2 µg/mL (≈ 3.41 µM) and an MIC (Fusarium solani) of 1.2 µg/mL (≈ 3.41 µM). The MIC (Bacillus sp.) was 1.2 µg/mL (≈ 3.41 µM).

CCC[Si](C)(COC(N)=O)COC(N)=O gave an LD50 [10] of over 1000 mg/kg.

In the case of C(=N\CCNCCC[Si-]123OCC[N+]1(CCO2)CCO3)/c1ccc2ccc3cccc4ccc1c2c34 (configuration not stated), the IC50 (Entamoeba histolytica) is reported as 56900 nM and the IC50 (Giardia intestinalis) is reported as 560 nM.

C[Si](C)(C)c1cc(C(F)(C(F)(F)F)C(F)(F)F)cc(Br)c1NC(=O)c1cccc(NC(=O)c2ccccc2)c1 gave an LC50 (Mythimna separata) of 2 µg/mL (≈ 3.15 µM).

With COc1ccc([Si](C)(C)[C@@H]2[C@H](CC(=O)N3CCC[C@H]3CO)O[C@@]3(C(=O)N(Cc4cccc(I)c4)c4ccccc43)[C@@H]2C)cc1 the EC50 (HepG2 [11]) was 16600 nM.

With CCCCCCCCCCOCC[N+]1(CCC[Si](C)(C)C)CCc2ccccc2C1.[I-] (configuration not stated) the LC50 (NIH3T3) was 0.1 µg/mL, the LC50 (MG-22A) was 0.1 µg/mL and the LC50 (HT-1080) was 0.1 µg/mL.

For CC(C)CC(NC(=O)c1ccccc1)[Si](C)(O)CC(C)C(=O)N1CCC[C@H]1C(=O)O (mixture of isomers), the IC50 [12] was 14 nM.

Molecule CC(C)CC(NC(=O)c1ccccc1)[Si](O)(O)CC(C)C(=O)N1CCC[C@H]1C(=O)O (mixture of isomers) has an IC50 [12] of 3040 nM.

Molecule CC[C@@]1(O)C(=O)OCc2c1cc1n(c2=O)Cc2cc3ccccc3nc2-1 [CAMPTOTHECIN] has an IC50 (MDA-MB-435) of 15 nM.

CCN(CC)C(=O)c1cccc(C)c1 [DIETHYLTOLUAMIDE] showed a Time (Aedes aegypti) of 616 min.

CCCC(C)(COC(N)=O)COC(N)=O [MEPROBAMATE] gave an LD50 [10] of 700 mg/kg.

For C=C1C[C@](OC)([C@H](O)C(=O)N[C@H]2OCO[C@H]3[C@@H]2O[C@H](C[C@H](O)CO)C(C)(C)[C@@H]3OC)O[C@H](C)[C@@H]1C [MYCALAMIDE A], the IC50 (P388) was 0.1 ng/mL (≈ 0.000199 µM).

C=C1C[C@](OC)([C@H](O)C(=O)N[C@H]2OCO[C@H]3[C@@H]2O[C@H](C[C@@H](CO)OC)C(C)(C)[C@@H]3OC)O[C@H](C)[C@@H]1C [MYCALAMIDE B] showed an IC50 (P388) of 0.1 ng/mL (≈ 0.000193 µM).
